Test results published in ChEMBL document CHEMBL1127588, “A structure-activity relationship study of benzylic modifications of 4-[1-(1-naphthyl)ethyl]-1H-imidazoles on alpha 1- and alpha 2-adrenergic receptors” (J Med Chem, 1994).

Legend:
[1] = target: T1, Adrenergic receptor alpha-2 (Rattus norvegicus, UniProt P22086+P19328+P22909); assay: Tested for its binding affinity against alpha-2 receptor in rat brain membrane; type: cell membranes
T1 sequence (P22086 whole entry): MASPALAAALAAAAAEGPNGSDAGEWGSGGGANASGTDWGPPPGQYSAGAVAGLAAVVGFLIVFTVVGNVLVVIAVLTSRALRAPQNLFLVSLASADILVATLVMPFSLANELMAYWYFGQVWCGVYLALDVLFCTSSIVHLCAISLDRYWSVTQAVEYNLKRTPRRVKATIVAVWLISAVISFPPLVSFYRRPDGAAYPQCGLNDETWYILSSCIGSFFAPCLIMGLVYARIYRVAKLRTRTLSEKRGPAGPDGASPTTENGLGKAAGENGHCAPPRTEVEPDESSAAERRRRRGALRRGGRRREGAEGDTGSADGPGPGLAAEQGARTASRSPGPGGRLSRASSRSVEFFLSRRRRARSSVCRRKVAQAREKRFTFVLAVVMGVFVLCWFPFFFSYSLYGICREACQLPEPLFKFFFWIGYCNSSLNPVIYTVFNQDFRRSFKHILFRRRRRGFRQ
T1 sequence (P19328 whole entry): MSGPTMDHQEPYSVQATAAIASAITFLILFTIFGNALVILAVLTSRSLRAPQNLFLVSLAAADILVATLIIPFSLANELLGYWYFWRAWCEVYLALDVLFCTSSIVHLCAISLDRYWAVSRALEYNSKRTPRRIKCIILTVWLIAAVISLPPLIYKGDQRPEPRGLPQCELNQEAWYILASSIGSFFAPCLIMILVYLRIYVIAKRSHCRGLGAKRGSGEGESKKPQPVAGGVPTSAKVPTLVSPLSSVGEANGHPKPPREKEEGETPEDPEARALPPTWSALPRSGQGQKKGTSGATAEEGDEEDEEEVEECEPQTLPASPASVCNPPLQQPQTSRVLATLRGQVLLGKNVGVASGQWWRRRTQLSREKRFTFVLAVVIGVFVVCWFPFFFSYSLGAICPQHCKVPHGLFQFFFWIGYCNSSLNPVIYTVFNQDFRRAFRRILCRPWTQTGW
T1 sequence (P22909 whole entry): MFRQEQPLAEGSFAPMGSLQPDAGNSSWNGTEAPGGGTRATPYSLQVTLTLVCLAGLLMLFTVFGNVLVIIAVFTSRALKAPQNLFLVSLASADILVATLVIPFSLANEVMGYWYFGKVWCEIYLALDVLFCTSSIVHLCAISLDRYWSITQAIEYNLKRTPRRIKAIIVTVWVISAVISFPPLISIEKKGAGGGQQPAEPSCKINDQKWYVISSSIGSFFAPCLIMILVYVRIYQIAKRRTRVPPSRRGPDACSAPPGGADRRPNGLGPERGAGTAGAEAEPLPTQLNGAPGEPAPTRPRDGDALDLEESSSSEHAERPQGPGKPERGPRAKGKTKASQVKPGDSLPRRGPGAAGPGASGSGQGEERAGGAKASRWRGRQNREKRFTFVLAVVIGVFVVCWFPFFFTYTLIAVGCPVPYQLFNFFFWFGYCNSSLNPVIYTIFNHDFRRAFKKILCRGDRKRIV

[2] = Ratio between IC50 values of alpha 1 and alpha 2 receptors
[3] = target: T2, Adrenergic receptor alpha-2 (Homo sapiens, UniProt P08913+P18825+P18089); assay: Tested for its inhibitory activity against alpha-2 adrenoceptor in guinea pig ileum; type: tissue-based, Cavia porcellus; conditions: target entry is the homologue from another species
T2 sequence (P08913 whole entry): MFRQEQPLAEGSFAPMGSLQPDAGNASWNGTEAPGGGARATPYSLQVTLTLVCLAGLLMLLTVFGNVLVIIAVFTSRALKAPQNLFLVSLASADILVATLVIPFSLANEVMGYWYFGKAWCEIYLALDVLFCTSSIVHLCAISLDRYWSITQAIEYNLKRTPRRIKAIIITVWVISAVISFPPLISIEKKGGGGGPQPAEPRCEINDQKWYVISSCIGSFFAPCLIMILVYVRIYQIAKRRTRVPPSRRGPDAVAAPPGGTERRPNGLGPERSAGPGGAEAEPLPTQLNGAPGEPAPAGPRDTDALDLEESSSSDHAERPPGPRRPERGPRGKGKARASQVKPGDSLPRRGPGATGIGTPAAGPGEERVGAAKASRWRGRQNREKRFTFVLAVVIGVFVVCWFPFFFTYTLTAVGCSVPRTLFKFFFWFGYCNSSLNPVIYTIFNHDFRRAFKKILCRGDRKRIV
T2 sequence (P18825 whole entry): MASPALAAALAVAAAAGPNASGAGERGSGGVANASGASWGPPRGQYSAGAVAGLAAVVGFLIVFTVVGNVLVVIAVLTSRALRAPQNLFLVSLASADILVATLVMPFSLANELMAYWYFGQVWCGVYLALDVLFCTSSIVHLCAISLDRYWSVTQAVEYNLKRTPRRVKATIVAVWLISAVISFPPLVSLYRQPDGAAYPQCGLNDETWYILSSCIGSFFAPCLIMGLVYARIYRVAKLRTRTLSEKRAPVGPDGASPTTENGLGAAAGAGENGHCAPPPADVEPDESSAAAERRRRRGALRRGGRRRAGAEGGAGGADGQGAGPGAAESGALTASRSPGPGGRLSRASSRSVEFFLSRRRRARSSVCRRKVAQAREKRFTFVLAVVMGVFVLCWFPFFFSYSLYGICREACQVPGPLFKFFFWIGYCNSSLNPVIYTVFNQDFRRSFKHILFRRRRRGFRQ
T2 sequence (P18089 whole entry): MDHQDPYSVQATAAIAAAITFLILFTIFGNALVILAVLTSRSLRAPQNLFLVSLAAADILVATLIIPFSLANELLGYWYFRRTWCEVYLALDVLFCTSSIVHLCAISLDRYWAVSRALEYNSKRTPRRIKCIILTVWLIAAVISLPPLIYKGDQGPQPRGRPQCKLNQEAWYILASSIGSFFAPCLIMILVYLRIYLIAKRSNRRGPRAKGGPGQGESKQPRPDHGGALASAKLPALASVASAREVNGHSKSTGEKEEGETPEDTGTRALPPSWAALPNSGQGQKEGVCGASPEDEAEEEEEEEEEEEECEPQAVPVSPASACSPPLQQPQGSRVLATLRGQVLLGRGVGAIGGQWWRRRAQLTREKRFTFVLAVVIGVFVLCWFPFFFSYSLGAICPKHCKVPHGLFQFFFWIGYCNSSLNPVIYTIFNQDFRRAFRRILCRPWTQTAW

[4] = target: Adrenergic receptor alpha (Rattus norvegicus) (UniProt P15823+P23944+P43140+P22086+P19328+P22909); assay: Ratio between EC50 values of alpha 1 and alpha 2 receptors; type: protein assay

Row | SMILES | Ki [1] [nM] | Ratio [2] | EC50 [3] [nM] | Ratio [4]
1 | COC(c1c[nH]cn1)c1cccc2ccccc12.Cl (configuration not stated) | 8582 | > 5.8 | 32992 | –
2 | Cc1cccc(C(C)c2c[nH]cn2)c1C (configuration not stated) [MEDETOMIDINE] | 19 | – | – | –
3 | Cl.c1ccc2c(Cc3c[nH]cn3)cccc2c1 | 68 | 2.7 | 18 | 117
4 | CC(c1c[nH]cn1)c1cccc2ccccc12 (stereo in doubt; 2) | 17 | – | 9 | –
5 | CC(c1c[nH]cn1)c1cccc2ccccc12 (stereo in doubt; S-(+)-2) | 11 | – | 11 | –
6 | CC(c1c[nH]cn1)c1cccc2ccccc12 (stereo in doubt; S-(-)-2) | 24 | – | – | –
7 | Cl.OC(c1c[nH]cn1)c1cccc2ccccc12 (configuration not stated) | 8810 | 1.05 | 375 | 33.8
